Among the data in patent US20210317092A1 (BAYER PHARMA AKTIENGESELLSCHAFT, priority 2016, published 2021) are IC50 values, retold here.

The first assay concerns the target T1, human Bradykinin B1 receptor (Homo sapiens, UniProt P46663).
T1 construct: host or cells: CHO-K1
T1 sequence (P46663 1-353): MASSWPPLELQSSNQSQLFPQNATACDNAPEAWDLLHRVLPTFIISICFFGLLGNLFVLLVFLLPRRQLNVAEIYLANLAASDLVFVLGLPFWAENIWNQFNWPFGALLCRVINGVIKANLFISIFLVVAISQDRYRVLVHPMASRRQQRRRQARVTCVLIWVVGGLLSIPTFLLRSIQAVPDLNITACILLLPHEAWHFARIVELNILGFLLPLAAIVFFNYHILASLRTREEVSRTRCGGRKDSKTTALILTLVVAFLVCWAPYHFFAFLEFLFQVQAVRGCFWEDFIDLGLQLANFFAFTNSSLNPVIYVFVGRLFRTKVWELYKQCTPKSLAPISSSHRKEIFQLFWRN
The assay can be described thus: Calcium flux Assay (FLIPR) with recombinant CHO-K1 cells expressing human Bradykinin B1 receptor, in presence (hB1 IC50) or absence (hB1 free IC50) of 0.1% BSA. The class given is cell-based. The following applies: in absence of 0.1% BSA, read-out: hB1 free IC50. (In general: Calcium assays in cells follow changes in intracellular calcium, usually with a dye or a luminescent sensor.)
On to `CCC1CCN(c2ccc(NC(=O)C3(c4ccc(OC(F)(F)F)cc4F)CC3)cc2-c2nnn[nH]2)C1=O` (centres unmarked) [Example 409, N-[4-(3-ethyl-2-oxopyrrolidin-1-yl)-3-(1H-tetrazol-5-yl)phenyl]-1-[2-fluoro-4-(trifluoromethoxy)phenyl]cyclo-propanecarboxa-mide], for which the IC50 was determined as 54.7 nM. Consider `O=C(Nc1ccc(-n2cnc(C(F)(F)F)n2)c(-c2nnn[nH]2)c1)C1(c2ccc(C(F)(F)F)cc2F)CC1` [Example 412, 1-[2-fluoro-4-(trifluoromethyl)phenyl]-N-{3-(1H-tetrazol-5-yl)-4-[3-(trifluoromethyl)-1H-1,2,4-triazol-1-yl]phenyl}cyclopro-panecarboxa-mide], for which the IC50 came out at 504 nM. On to `CCOc1ccc(-c2ncc(NC(=O)C3(c4ccc(C(F)(F)F)cc4F)CC3)cc2-c2nnn[nH]2)cn1` [Example 219, N-[6′-ethoxy-3-(1H-tetrazol-5-yl)-2,3′-bipyridin-5-yl]-1-[2-fluoro-4-(trifluoromethyl)phenyl] cyclopropane-carboxamide], for which the IC50 is 86.8 nM. As for `COc1cc(C2(C(=O)Nc3ccc(-c4ccnc(C(F)(F)F)c4)c(-c4nnn[nH]4)c3)CC2)ccc1F` [Example 180, 1-(4-fluoro-3-methoxyphenyl)-N-{3-(1H-tetrazol-5-yl)-4-[2-(trifluoromethyl)pyridin-4-yl]phenyl} cyclopropane-carboxamide], the IC50 was 768 nM. As for `CCc1ccn(-c2ccc(NC(=O)C3(c4ccc(OC(F)(F)F)cc4F)CC3)cc2-c2nnn[nH]2)n1` [Example 373, N-[4-(3-Ethyl-1H-pyrazol-1-yl)-3-(1H-tetrazol-5-yl)phenyl]-1-[2-fluoro-4-(trifluoromethoxy)phenyl]cyclo-propanecarboxa-mide], the IC50 is 24.2 nM. Turning to `O=C(Nc1ccc(-c2cc(F)ncc2F)c(-c2nnn[nH]2)c1)C1(c2ccc(C(F)(F)F)cc2F)CC1` [Example 167, N-[4-(2,5-difluoropyridin-4-yl)-3-(1H-tetrazol-5-yl)phenyl]-1-[2-fluoro-4-(trifluoromethyl)phenyl] cyclopropane-carboxamide], the IC50 amounted to 634 nM. For the molecule `Cn1ncc2cc(-c3ccc(NC(=O)C4(c5cccc(Cl)c5)CC4)cc3-c3nnn[nH]3)ccc21` [Example 339, 1-(3-chlorophenyl)-N-[4-(1-methyl-1H-indazol-5-yl)-3-(1H-tetrazol-5-yll)phenyl]cyclopro-panecarboxa-mide], the IC50 amounted to 23.7 nM. Same read-out and setting: the figure for `Cc1ccc(C2(C(=O)Nc3ccc(-n4cc(C(C)C)cn4)c(-c4nnn[nH]4)c3)CC2)c(F)c1` [Example 398, 1-(2-fluoro-4-methylphenyl)-N-[4-(4-isopropyl-1H-pyrazol-1-yl)-3-(1H-tetrazol-5-yl)phenyl]cyclopro-panecarboxa-mide] is 20.6 nM; for `CC(C)(C)c1cnn(-c2ccc(NC(=O)C3(c4ccc(C(F)(F)F)cc4F)CC3)cc2-c2nnn[nH]2)c1` [Example 410, 1-[2-fluoro-4-(trifluoromethyl)phenyl]-N-[4-(4-tert-butyl-1H-pyrazol-1-yl)-3-(1H-tetrazol-5-yl)phenyl]cyclopro-panecarboxa-mide] it is 6.05 nM. Consider `O=C(Nc1ccc(-c2ccnc(F)c2)c(-c2nnn[nH]2)c1)C1(c2cccc(Cl)c2)CC1` [Example 182, 1-(3-chlorophenyl)-N-[4-(2-fluoropyridin-4-yl)-3-(1H-tetrazol-5-yl)phenyl] cyclopropane-carboxamide], for which the IC50 was determined as 185 nM.

Take `O=C(Nc1ccc(-n2ccc(CC(F)(F)F)n2)c(-c2nnn[nH]2)c1)C1(c2cccc(Cl)c2)CC1` [Example 386, 1-(3-chlorophenyl)-N-{3-(1H-tetrazol-5-yl)-4-[3-(2,2,2-trifluoroethyl)-1H-pyrazol-1-yl]phenyl}cyclopro-panecarboxa-mide]: the IC50 amounted to 146 nM.

With `O=C(Nc1ccc(-c2ccc(C(F)F)nc2)c(-c2nnn[nH]2)c1)C1(c2ccc(Cl)cc2F)CC1` [Example 274, 1-(4-chloro-2-fluorophenyl)-N-{4-[6-(difluoromethyl)pyridin-3-yl]-3-(1H-tetrazol-5-yl)phenyl}cyclopro-panecarboxa-mide], the IC50 came to 6.35 nM. Regarding `CCOc1ccc(-c2ccc(NC(=O)C3(c4ccc(OC(F)(F)F)cc4)CC3)cc2-c2nnn[nH]2)cn1` [Example 74, N-[4-(6-ethoxypyridin-3-yl)-3-(1H-tetrazol-5-yl)phenyl]-1-[4-(trifluoromethoxy)phenyl] cyclopropane-carboxamide], the IC50 was 7.76 nM. In the case of `CC(C)(C)c1ccn(-c2ccc(NC(=O)C3(c4ccc(OC(F)(F)F)cc4F)CC3)cc2-c2nnn[nH]2)n1` [Example 381, N-[4-(3-tert-Butyl-1H-pyrazol-1-yl)-3-(1H-tetrazol-5-yl)phenyl]-1-[2-fluoro-4-(trifluoromethoxy)phenyl]cyclo-propanecarboxa-mide], the half-inhibitory concentration (IC50) amounted to 36.7 nM.

For `CCC1CCN(c2ccc(NC(=O)C3(c4ccc(F)c(F)c4)CC3)cc2-c2nnn[nH]2)C1=O` (centres unmarked) [Example 406, 1-(3,4-difluorophenyl)-N-[4-(3-ethyl-2-oxopyrrolidin-1-yl)-3-(1H-tetrazol-5-yl)phenyl]cyclopro-panecarboxa-mide], the IC50 was 2160 nM.

The assay is the same for the next values; noted with them: in presence of 0.1% BSA, read-out: hB1 IC50.
As for `COc1ccc(-c2ccc(NC(=O)C3(c4ccc(Cl)cc4)CC3)cc2-c2nnn[nH]2)cc1OC` [Example 43, 1-(4-chlorophenyl)-N-[3′,4′-dimethoxy-2-(1H-tetrazol-5-yl)biphenyl-4-yl]cyclopropane carboxamide], the IC50 was determined as 14 nM.

Take `COc1ccc(-c2ccc(NC(=O)C3(c4cccc(F)c4)CC3)cc2-c2nnn[nH]2)cc1OC` [Example 10, N-[3′,4′-dimethoxy-2-(1H-tetrazol-5-yl)biphenyl-4-yl]-1-(3-fluorophenyl) cyclopropane-carboxamide]: the half-inhibitory concentration (IC50) came to 68.8 nM. On the same count and under the same terms, the value for `CCOc1ncc(-c2ccc(NC(=O)C3(c4cccc(Cl)c4)CC3)cc2-c2nnn[nH]2)cc1C(F)(F)F` [Example 158, 1-(3-chlorophenyl)-N-{4-[6-ethoxy-5-(trifluoromethyl)pyridin-3-yl]-3-(1H-tetrazol-5-yl)phenyl} cyclopropane-carboxamide] was 764 nM. As to `COc1ccc(-c2ccc(NC(=O)C3(C4CCC(C)CC4)CC3)cc2-c2nnn[nH]2)cc1` (single isomer, unassigned) [Example 113, N-[4′-methoxy-2-(1H-tetrazol-5-yl)biphenyl-4-yl]-1-(4-methylcyclo-hexyl) cyclopropane carboxamide], the IC50 is 1200 nM.

As for `COc1ccc(-c2ccc(NC(=O)C3(c4ccc(C)cc4)CC3)cc2-c2nnn[nH]2)cc1OC` [Example 45, N-[3′,4′-dimethoxy-2-(1H-tetrazol-5-yl)biphenyl-4-yl]-1-(4-methylphenyl) cyclopropane-carboxamide], the IC50 was determined as 49.8 nM. Consider `Cn1ncc2cc(-c3ccc(NC(=O)C4(c5cccc(Cl)c5)CC4)cc3-c3nnn[nH]3)ccc21` [Example 339, 1-(3-chlorophenyl)-N-[4-(1-methyl-1H-indazol-5-yl)-3-(1H-tetrazol-5-yll)phenyl]cyclopro-panecarboxa-mide], for which the IC50 came to 46.7 nM. On the same count and under the same terms, the value for `N#Cc1cc(-c2ccc(NC(=O)C3(c4cccc(Cl)c4)CC3)cc2-c2nnn[nH]2)ccc1Cl` [Example 325, N-[4′-chloro-3′-cyano-2-(1H-tetrazol-5-yl)biphenyl-4-yl]-1-(3-chlorophenyl)cy-clopropanecarbox-amide] was 1740 nM.

For `COc1ncc(-c2ccc(NC(=O)C3(c4cccc(Cl)c4)CC3)cc2-c2nnn[nH]2)cn1` [Example 333, 1-(3-chlorophenyl)-N-[4-(2-methoxypyrimidin-5-yl)-3-(1H-tetrazol-5-yl)phenyl]cyclopro-panecarboxa-mide], the IC50 was 420 nM. The same measure, in the same setting: the value for `O=C(Nc1ccc(-c2ccnc(F)c2)c(-c2nnn[nH]2)c1)C1(c2cccc(Cl)c2)CC1` [Example 182, 1-(3-chlorophenyl)-N-[4-(2-fluoropyridin-4-yl)-3-(1H-tetrazol-5-yl)phenyl] cyclopropane-carboxamide] was 1350 nM. On the same count and under the same terms, the value for `COc1ccc(-c2ccc(NC(=O)C3(c4cccc(Cl)c4)CC3)cc2-c2nnn[nH]2)c(C)c1` [Example 118, 1-(3-chlorophenyl)-N-[4′-methoxy-2′-methyl-2-(1H-tetrazol-5-yl)biphenyl-4-yl]cyclopropane carboxamide] was 1820 nM. With `N#Cc1cncc(-c2ccc(NC(=O)C3(c4cccc(Cl)c4)CC3)cc2-c2nnn[nH]2)c1` [Example 336, 1-(3-chlorophenyl)-N-[4-(5-cyanopyridin-3-yl)-3-(1H-tetrazol-5-yl)phenyl]cyclopro-panecarboxa-mide], the IC50 was 1320 nM.

Consider `O=C(Nc1ccc(-c2ccc(OCC(F)(F)F)nc2)c(-c2nnn[nH]2)c1)C1(c2cccc(Cl)c2)CC1` [Example 313, 1-(3-chlorophenyl)-N-{3-(1H-tetrazol-5-yl)-4-[6-(2,2,2-trifluoroethoxy)-pyridin-3-yl]phenyl}cyclopropanecarboxamide], for which the IC50 turned out to be 191 nM. For `CCCc1cccc(C2(C(=O)Nc3ccc(-c4ccc(OC)c(OC)c4)c(-c4nnn[nH]4)c3)CC2)c1` [Example 41, N-[3′,4′-dimethoxy-2-(1H-tetrazol-5-yl)biphenyl-4-yl]-1-(3-propylpheny) cyclopropane-carboxamide], the IC50 stood at 92 nM. For `O=C(Nc1ccc(-c2ccc(OC(F)(F)F)cc2)c(-c2nnn[nH]2)c1)C1(c2cccc(Cl)c2)CC1` [Example 317, 1-(3-chlorophenyl)-N-[2-(1H-tetrazol-5-yl)-4′-(trifluoromethoxy)biphenyl-4-yl]cyclopropane-carboxamide], the IC50 turned out to be 52.9 nM.

For the molecule `CCOc1ccc(-c2ccc(NC(=O)C3(c4ccc(OC(F)(F)F)cc4)CC3)cc2-c2nnn[nH]2)cn1` [Example 74, N-[4-(6-ethoxypyridin-3-yl)-3-(1H-tetrazol-5-yl)phenyl]-1-[4-(trifluoromethoxy)phenyl] cyclopropane-carboxamide], the IC50 amounted to 18.7 nM. In the case of `COc1ccc(-c2ccc(NC(=O)C3(c4cccc(F)c4F)CC3)cc2-c2nnn[nH]2)cc1OC` [Example 26, 1-(2,3-difluorophenyl)-N-[3′,4′-dimethoxy-2-(1H-tetrazol-5-yl)biphenyl-4-yl]cyclopropane carboxamide], the IC50 was found to be 91.7 nM.

With `COc1ccc(-c2ccc(NC(=O)C3(c4ccccc4)CC3(C)C)cc2-c2nnn[nH]2)cc1OC` (centres unmarked) [Example 7, N-[3′,4′-dimethoxy-2-(1H-tetrazol-5-yl)biphenyl-4-yl]-2,2-dimethyl-1-phenylcyclo-propane-carboxamide], the IC50 came to 1350 nM.

One may read the IC50 as the midpoint of a concentration-inhibition curve.
